Experimental data from patent US7141606B2, “Gabapentin analogues for sleep disorders” (Warner-Lambert Company, priority 2000, dated 2006).

Test system: Male Sprague-Dawley rats
Experiment: EEG/EMG sleep recording in rats: time in NREMS for 12 hours after PO dosing
Format: in vivo, rat
Details: for Total Minutes (Mean ± SEM) NREMS for 12-Hour Postinjection: rats, N = 8/Treatment, just prior to onset of light phase
Description: Male Sprague-Dawley rats weighing 250 to 360 g were used for the experiment. The rats were kept on a 12:12-hr light/dark cycle (lights on at 0900) at 23±1° C. ambient temperature. They had free access water and food during the experiment. Stainless steel jewelry screws for EEG recording were placed over the frontal and parietal cortices. An EMG electrode was implanted in the dorsal neck muscles.
Recording and analyses. After the recovery period (at least 1 week), rats were moved to sleep recording chambers. The rats were allowed relatively unrestricted movement inside the recording cages. A flexible tether connected the electrodes led to an electronic swivel. The leads from the swivel were routed to Grass Model No. 7D polygraphs in an adjacent room for recording EEG and EMG activity. The vigilance states of wakefulness, nonrapid-eye-movement sleep (NREMS), and rapid-eye-movement sleep (REMS) were determined offline in 10 second epochs. The amount of time spent in each vigilance state was calculated every hour and totaled for the 12-hour period post injection. Drug or vehicle were administered PO just prior to the onset of the light phase of the rat's light/dark cycle. Each rat received a vehicle and one drug dose. Results

SMILES	Total Minutes (Mean ± SEM) NREMS for 12-Hour Postinjection (1 mg/kg PO) [min]	Total Minutes (Mean ± SEM) NREMS for 12-Hour Postinjection (3 mg/kg PO) [min]	Total Minutes (Mean ± SEM) NREMS for 12-Hour Postinjection (10 mg/kg PO) [min]	Effect on NREMS in rats during the 12-hour period following injection (rats, 1, 3, and 20 mg/kg PO)	Total Minutes (Mean ± SEM) NREMS for 12-Hour Postinjection (30 mg/kg PO) [min]	Effect on NREMS in rats during the 12-hour period following injection (rats, 3, 10, and 30 mg/kg PO)
CCC[C@@H](C)C[C@H](CN)CC(=O)O [Compound 2, (3S, 5R)-3-Aminomethyl-5-methyl-octanoic acid]	432 ± 8	451 ± 9	481 ± 6	significantly increased NREMS	–	–
C[C@H]1CC(CN)(CC(=O)O)C[C@@H]1C [Compound 1]	–	401 ± 8	409 ± 12	–	424 ± 6	significantly increased NREMS
